Laboratory results from EP1149106B1, “4,5-AZOLO-OXINDOLES” (F. HOFFMANN-LA ROCHE AG, priority 1998, dated 2000).

Legend:
[1] = molecular target: T1, Cyclin E/CDK2 (Homo sapiens, UniProt P24941); experiment: CDK2 FlashPlate Assay (Rb phosphorylation, 33P-ATP); type: biochemical; settings: recombinant human Cyclin E/CDK2, Rb substrate, 25 minutes at room temperature
T1 construct: made in house; host or cells: insect cells
Procedure: To determine inhibition of CDK2 activity, purified recombinant retinoblastoma (Rb) protein was coated on 96 well FlashPlates (New England Nuclear, Boston, MA). Rb is a natural substrate for phosphorylation by CDK2 (Herwig and Strauss Eurr. J. Biochem., Vol. 246 (1997) pp. 581-601 and references therein). Recombinant active human Cyclin E/CDK2 complexes were partially purified from extracts of insect cells. The active Cyclin E/CDK2 was added to the Rb-coated FlashPlates along with ^33P-ATP and dilutions of test compounds. Plates were incubated for 25 minutes at room temperature with shaking, then washed and counted in the Topcount scintillation counter (Packard Instrument Co., Downers Grove, IL). Dilutions of test compounds were tested in duplicate in each assay. The percent inhibition of Rb phosphorylation, which is a measure of the inhibition of CDK2 activity, was determined according to the following formula: [formula] where "test compound" refers to the average counts per minute of the test duplicates, "nonspecific" refers to the average counts per minute when no Cyclin E/CDK2 was added, and "total" refers to the average counts per minute when no compound was added.

[2] = system: colon carcinoma line SW480; experiment: Cell-based antiproliferative assay (MTT), SW480; settings: Homo sapiens, SW480, 96 h, 1000 cells per well, 4 days post addition of test compound
[3] = system: estrogen receptor negative epithelial breast carcinoma line (MDA-MB-435); experiment: Cell-based antiproliferative assay (MTT), MDA-MB-435; settings: Homo sapiens, MDA-MB-435, 120 h, 2000 cells per well, 5 days post addition of test compound, read-out: MDA-MB435 IC50
Procedure: The estrogen receptor negative epithelial breast carcinoma line (MDA-MB-435) was purchased from American Type Cell Culture Collection (ATCC; Rockville, MD) and was grown in the medium recommended by ATCC. For analysis of the effect of the test compounds on growth of these cells, the cells were plated at 2000 cells per well in a 96-well tissue culture plate, and were incubated overnight at 37°C with 5% CO2. The next day, the test compounds were dissolved in 100% dimethyl sulfoxide (DMSO) to yield a 10 mM stock solution. Each compound was diluted with sterile medium to 1 mM in a sufficient quantity to yield a final concentration of 120 µM. The compounds were then serially diluted in medium with 1.2% DMSO. […] The plates were returned to the incubator, and 5 days post addition of test compound, were analyzed as described below.
3-(4,5-Dimethylthiazole-2-yl)-2,5-diphenyl-2H-tetrazolium bromide (thiazolyl blue; MTT) was added to each well to yield a final concentration of 1 mg/ml. […] Absorbencies were read in a microtiter plate reader (Molecular Dynamics) at a wavelength of 570 nm with a 650 nm reference. Percent inhibition was calculated by subtracting the absorbance of the blank (no cell) wells from all wells, then subtracting the division of the average absorbance of each test duplicate by the average of the controls from 1.00. […]

SMILES: COc1cc[nH]c1/C=C1\C(=O)Nc2ccc3[nH]c(C)nc3c21 [P, (Z)-8-[(3-Methoxy-1H-pyrrol-2-yl)methylene]-2-methyl-3,6,7,8-tetrahydro-pyrrolo-[3,2-e]benzimidazol-7-one]
- IC50 [1]: < 3.5 µM
- IC50 [2]: < 1 µM
- IC50 [3]: < 3.5 µM
